From patent US7112680B2, “Heterocyclic hydrazones for use as anti-cancer agents” (Austria Wirtschaftsservice Gesellschaft MIT Beschrankter …, priority 2000, dated 2006)
Where two headings read alike, the source gives them in different places.

Experiments:
[1] = tested on: HT-29 (colon adenocarcinoma); test: Inhibition of tumor cell growth, SRB-assay, HT-29; assay type: cell-based, human
Summary of the method: (§1)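 Cells seeded at 3,000–10,000 (or ~10,000) per well in 96-well plates; compounds dissolved in DMSO. After treatment, samples fixed, washed and absorbance read on a microplate reader (SRB or MTT read-out according to the assay).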

[2] = tested on: HeLa (epitheloid cervix carcinoma); test: Inhibition of tumor cell growth, SRB-assay, HeLa; assay type: cell-based, human
[3] = tested on: CCRF-CEM (acute lymphoblastic leukemia); test: Inhibition of tumor cell growth, MTT-assay, CCRF-CEM; assay type: cell-based, human; settings: Table 2, 72 hours
[4] = tested on: up to 12 different tumor cells in permeable hoses; test: Hollow fibre assay; assay type: in vivo; settings: mice implanted with tumor cells in permeable hoses
Protocol: Substances Ib-11 and Ib-24 were also tested in the so-called hollow fibre assay for their anti-tumor activity. For this purpose, mice were implanted with up to 12 different tumor cells in permeable hoses and treated with the compounds according to the invention.

[5] = tested on: MEXF 276L (melanoma); test: Inhibition of tumor cell growth, SRB-assay, MEXF 276L; assay type: cell-based, human; settings: Table 2, 72 hours, read-out: IC50 MEXF276L
Protocol: The KB cell lines were grown in Dulbecco's modified Eagle's medium (4,5 g glucose/l). To the cultures of KB-C1 cells 1 μg of colchicine/ml, and to the hydroxyurea-resistant KB-HU cells 1 mM hydroxyurea was added every other week. […] 3,000 - 10,000 cells in 200 μl medium were seeded per well into 96-well plates. […] Approximately 10,000 cells per 100 μl were seeded in 96-well plates. […] The substances were dissolved in dimethylsulfoxide (DMSO). […] Subsequently, the samples were fixed, washed, and the absorption was determined by a microplate reader.

[6] = tested on: Burkitt's lymphoma (CA 46, ATCC No. CRL 1648); test: Inhibition of tumor cell growth, MTT-assay, Burkitt's lymphoma; assay type: cell-based, human
Summary of the method: as §1

[7] = tested on: Burkitt's lymphoma cells; test: Apoptosis determination with propium iodide; assay type: cell-based, human; settings: for induction of apoptosis (in words): tumor cells; for apoptotic cells: twice the IC50 concentrations, 48 hours, non-treated cells 1.7%
Protocol: In non-treated Burkitt's lymphoma cells, an average of 1.7% are apoptotic. […] The determination of the apoptosis was performed with propium iodide (Nicoletti et al., Rapid and Simple Method for Measuring Thymocyte Apoptosis by Propium Iodine Staining and Flow Cytometry, J. Immunol. Methods, 139, 271–279, 1991).

[8] = tested on: KB-3-1 (human oral epidermoid carcinoma); test: Inhibition of tumor cell growth, SRB-assay, KB-3-1; assay type: cell-based; settings: read-out: In vitro-activity against human tumor cell lines, KB-3-1
Protocol: (§2) In order to obtain information about the growth-inhibiting action on tumor cells, the inhibition of the growth of the following human tumor cells was determined: Burkitt's lymphoma (CA 46, ATCC No. CRL 1648), CCRF-CEM (acute lymphoblastic leukemia, ATCC No. CCL 119), K562 (chronic myelogenous leukemia, ATTC No. CCL 243), HeLa (epitheloid cervix carcinoma, ATCC No. CCL 2), MEXF 276L (melanoma), HT-29 (colon adenocarcinoma, ATCC No. HTB 38), KB-3-1 (human oral epidermoid carcinoma, CTCC No. CCL 17), KB-HU hydroxyurea-resistant, multidrug-resistant KB-C1 cells (Akiyama et al, Cell. Mol Genet., 11:117–126, 1985). Burkitt's, CCRF-CEM, HeLa and MEXF 276L cells were grown in RPMI 1640, HT-29 cells in McCoy's 5A medium. The KB cell lines were grown in Dulbecco's modified Eagle's medium (4,5 g glucose/l). To the cultures of KB-C1 cells 1 μg of colchicine/ml, and to the hydroxyurea-resistant KB-HU cells 1 mM hydroxyurea was added every other week. The media were supplemented with 10% fetal calf serum (except Burkitt's lymphoma cells with 15%), 2 mM glutamine, 50 units/ml penicillin and 50 μg/ml streptomycin. Inhibition of growth of HeLa, HT-29, KB and MEXF 276L cells was detected by the SRB-assay (Skehan et al, J. Natl Cancer Inst., 82:1107–1112, 1990). 3,000 - 10,000 cells in 200 μl medium were seeded per well into 96-well plates. Dose-response curves for CCRF-CEM and Burkitt's lymphoma cells were effected by an MTT-assay (Mosman, J. Immunol Methods, 65:55–63, 1983) from Boehringer Mannheim, Mannheim, Germany. Approximately 10,000 cells per 100 μl were seeded in 96-well plates. After an initial incubation of four hours, various substance concentrations were added, and the cells were incubated at 37° C. in a water-saturated atmosphere of 95% air and 5% CO2 for 72 hours. The substances were dissolved in dimethylsulfoxide (DMSO). The concentration of DMSO was 0.5%, and this was not toxic to the cells. Subsequently, the samples were fixed, washed, and the absorption was determined by a microplate reader.

[9] = tested on: KB-HU hydroxyurea-resistant cells; test: Inhibition of tumor cell growth, SRB-assay, KB-HU; assay type: cell-based, human; settings: Table 4, 72 hours, read-out: In vitro-activity against human tumor cell lines, KB-HU
Protocol: as §2

[10] = tested on: multidrug-resistant KB-C1 cells; test: Inhibition of tumor cell growth, SRB-assay, KB-C1; assay type: cell-based, human; settings: read-out: In vitro-activity against human tumor cell lines, KB-C1
Protocol: as §2

[11] = Table 2, 72 hours, read-out: IC50 HT-29 (converted)
[12] = Table 2, 72 hours, read-out: IC50 HeLa (converted)
[13] = Table 2, 72 hours, read-out: IC50 Burkitts

Row | Structure (SMILES) | IC50 [1, 11] [nM] | IC50 [2, 12] [nM] | IC50 [3] [nM] | anti-tumor activity in hollow fibre assay [4] | IC50 [5] [nM] | IC50 [6, 13] [nM] | IC50 ([1]; Table 4, 72 hours, read-out: In vitro-activity against human tumor cell lines, HT-29) [nM] | IC50 ([2]; Table 4, 72 hours, read-out: In vitro-activity against human tumor cell lines, HeLa) [nM] | induction of apoptosis (in words) [7] | apoptotic cells [7] [%] | IC50 ([8]; Table 4, 72 hours) [nM] | IC50 [9] [nM] | IC50 ([6]; Table 4, 72 hours, read-out: In vitro-activity against human tumor cell lines, Burkitts) [nM] | IC50 ([10]; Table 4, 72 hours) [nM] | IC50 ([1]; Homo sapiens, HT-29, Table 4, 72 hours, read-out: In vitro-activity against human tumor cell lines, HT-29) [nM] | IC50 ([2]; Homo sapiens, HeLa, Table 4, 72 hours, read-out: In vitro-activity against human tumor cell lines, HeLa) [nM] | IC50 ([8]; Homo sapiens, KB 3-1, Table 4, 72 hours) [nM] | IC50 ([9]; Homo sapiens) [nM] | IC50 ([6]; Homo sapiens, CA46, Table 4, 72 hours, read-out: In vitro-activity against human tumor cell lines, Burkitts) [nM] | IC50 ([10]; Homo sapiens, KBC-1, Table 4, 72 hours) [nM]
1 | CC(=NNc1nc2ccccc2[nH]1)c1cnccn1 [Ib-11] | 710 | 1710 | 900 | exhibit anti-tumor activity | 2130 | 1320 | – | – | – | – | – | – | – | – | – | – | – | – | – | –
2 | CC(=NNc1nc2ccccc2o1)c1cc2ccccc2cn1 [Ib-24] | 230 | 63 | 130 | exhibit anti-tumor activity | 650 | 25 | – | – | – | – | – | – | – | – | – | – | – | – | – | –
3 | CC(=NNc1nc2ccccc2n1C)c1cc(N(C)C)ccn1 [Id-12] | – | – | – | – | – | – | 5070 | 3740 | capable of inducing apoptosis | 60 | 2280 | 50 | 2210 | 810 | – | – | – | – | – | –
4 | CC(=NNc1nc2ccccc2n1C)c1cccc(-c2ccccc2)n1 [Id-17, 1-(6-Phenyl-2-pyridyl)-1-ethanone-1-(1-methyl-1H-benzo[d]imidazol-2-yl)-hydrazone] | – | – | – | – | – | – | – | – | capable of inducing apoptosis | 85 | – | – | – | – | 3360 | 2350 | 3850 | 9940 | 1450 | 3080
